Measurements as given in patent publication US10899747B2, “Biaryl piperidine amide compounds and methods of use thereof” (Athenex, Inc., priority 2017, dated 2021).

Test system: IL-2
Test: PHA-IL2 (cell activation and cytokine analysis)
Assay type: cell-based
Details: 50% inhibition concentration class
Description: Cells to be tested may include, but are not limited to, a) Jurkat (a transformed human T cell leukemia), b) whole blood isolated from human or rodent sources, c) peripheral blood mononuclear cells (PBMC) freshly isolated from human or rodent whole blood, or d) purified fractions of PBMC (e.g., CD4 T cells). Cells are plated in 96-well plates at a final density of 1.0-2.0×10^6 cells/ml in 150 ul of assay medium (RPMI+0.5% fetal calf serum). Test compounds are included at a final concentration of ≤20 uM and generally pre-incubated with cells for 30 minutes prior to stimulation. An appropriate stimulus is added, including but not limited to, a) phytohemagglutinin (PHA), b) phorbol myristate acetate (PMA) and ionomycin, or c) stimulatory antibodies to the T cell receptor (TCR) complex (e.g., anti-CD3ε) and CD28. Cell cultures are stimulated for 24-48 hours in a humidified incubator (37 degrees C./5% CO2). A fraction of the culture supernatant is than harvested from each well and assayed for the presence of appropriate cytokine using standard ELISA. Cytokines to be analyzed may include IL-2, IL-4, IL-10, IL-17, IL-22, IFNγ, and/or TNFα. If required, the number of cytokine producing cells can be determined using intracellular staining and flow cytometry. […]

SMILES | IC50 [nM]
N#Cc1ccc(-c2ccccc2CCC(=O)N2CCC(CCc3ccc4c(c3)OCO4)CC2)cc1 [Compound 225] | 1000 to 10000
N#Cc1ccc(-c2ccccc2CCC(=O)N2CCC(CCc3cc(F)cc(F)c3)CC2)cc1 [Compound 226] | 1000 to 10000
O=C(COc1ccccc1-c1ccccc1CN1CCOCC1)N1CCC(CCc2ccc3c(c2)OCO3)CC1 [Compound 228] | 1000 to 10000
COc1ccc(CCC2CCN(C(=O)C(C)Oc3c(C)cccc3-c3ccccc3)CC2)cc1 (centres unmarked) [Compound 234] | 1000 to 10000
COc1cccc(CCC2CCN(C(=O)C(C)Oc3c(C)cccc3-c3ccccc3)CC2)c1 (centres unmarked) [Compound 235] | < 1000
O=C(COc1ccccc1-c1ccc(F)cc1F)N1CCC(CCc2ccc3c(c2)OCO3)CC1 [Compound 236] | 10000 to 50000
COc1cccc(-c2ccccc2OCC(=O)N2CCC(CCc3ccc4c(c3)OCO4)CC2)c1OC [Compound 241] | < 1000
CCCOc1cccc(-c2ccccc2OCC(=O)N2CCC(CCc3ccc4c(c3)OCO4)CC2)c1 [Compound 244] | 1000 to 10000
CCCCOc1cccc(-c2ccccc2OCC(=O)N2CCC(CCc3ccc4c(c3)OCO4)CC2)c1 [Compound 246] | 1000 to 10000
Cc1cc(F)ncc1-c1ccccc1OCC(=O)N1CCC(CCc2ccc3c(c2)OCO3)CC1 [Compound 248] | 10000 to 50000
Nc1ccc(/C=C/C2CCN(C(=O)COc3ccccc3-c3ccccc3)CC2)cn1 [Compound 252] | 10000 to 50000
O=C(COc1ccccc1-c1ccccc1)N1CCC(/C=C/c2ccc3c(c2)OCO3)CC1 [Compound 253] | < 1000
CC1Oc2ccc(CCC3CCN(C(=O)COc4ccccc4-c4ccccc4)CC3)cc2OC1C (centres unmarked) [Compound 256] | < 1000
N#Cc1ccc(-c2ccccc2OCC(=O)N2CCC(CCc3ccc4c(c3)NC(=O)CO4)CC2)cc1 [Compound 257] | 1000 to 10000
O=C(C1CC1c1cc2c(cc1-c1ccccc1)OCO2)N1CCC(CCc2ccc3c(c2)OCO3)CC1 (centres unmarked) [Compound 260] | < 1000
O=C(COc1ccccc1-c1ccccc1)N1CCC(CCCc2ccccc2)CC1 [Compound 261] | 1000 to 10000
Cc1cc(F)ccc1-c1ccccc1OCC(=O)N1CCC(CCc2ccc3c(c2)OCO3)CC1 [Compound 262] | 1000 to 10000
CC1Oc2ccc(CCC3CCN(C(=O)COc4ccccc4-c4ccc(C#N)cc4)CC3)cc2OC1C (centres unmarked) [Compound 263] | < 1000
CC1Oc2ccc(CCC3CCN(C(=O)COc4ccccc4-c4ccc(Cl)nc4)CC3)cc2OC1C (centres unmarked) [Compound 265] | < 1000
CC1Oc2ccc(CCC3CCN(C(=O)COc4ccccc4-c4ccc5[nH]ncc5c4)CC3)cc2OC1C (centres unmarked) [Compound 268] | < 1000
O=C(COc1ccccc1-c1ccc(F)cc1)N1CCC(CCc2ccccc2)CC1 [Compound 270] | 1000 to 10000
O=C(COc1ccccc1-c1ccc(Cl)nc1)N1CCC(CCc2ccccc2)CC1 [Compound 271] | < 1000
O=C(COc1ccccc1-c1ccc2[nH]ncc2c1)N1CCC(CCc2ccccc2)CC1 [Compound 272] | < 1000
CCc1ccc(OCC(=O)N2CCC(CCc3ccc4c(c3)OCO4)CC2)c(-c2ccc(Cl)nc2)c1 [Compound 275] | 1000 to 10000
CCc1ccc(OCC(=O)N2CCC(CCc3ccc4c(c3)OCO4)CC2)c(-c2ccc3[nH]ncc3c2)c1 [Compound 277] | < 1000

Now from value to compound:

IC50 [nM] | SMILES
1000 to 10000 | COc1cccc(CCC2CCN(C(=O)CCc3ccccc3-c3ccc(C#N)cc3)CC2)c1 [Compound 227]
1000 to 10000 | Cc1cccc(-c2ccccc2)c1OC(C)C(=O)N1CCC(CCc2cc(F)cc(F)c2)CC1 (centres unmarked) [Compound 229]
< 1000 | O=C(COc1ccccc1-c1ccc(F)cc1)N1CCC(CCc2ccc3c(c2)OCCCO3)CC1 [Compound 230]
< 1000 | N#Cc1ccc(-c2ccccc2OCC(=O)N2CCC(CCc3ccc4c(c3)OCCCO4)CC2)cc1 [Compound 231]
< 1000 | O=C(COc1ccccc1-c1ccccc1O)N1CCC(CCc2ccc3c(c2)OCCCO3)CC1 [Compound 233]
< 1000 | O=C(COc1ccccc1-c1ccc(C(F)(F)F)cc1F)N1CCC(CCc2ccc3c(c2)OCO3)CC1 [Compound 237]
< 1000 | COc1ccc(F)c(-c2ccccc2OCC(=O)N2CCC(CCc3ccc4c(c3)OCO4)CC2)c1 [Compound 238]
< 1000 | Cc1ccc(F)c(-c2ccccc2OCC(=O)N2CCC(CCc3ccc4c(c3)OCO4)CC2)c1 [Compound 239]
1000 to 10000 | O=C(COc1ccccc1-c1ccc(Cl)cc1Cl)N1CCC(CCc2ccc3c(c2)OCO3)CC1 [Compound 240]
1000 to 10000 | COc1c(F)cc(F)cc1-c1ccccc1OCC(=O)N1CCC(CCc2ccc3c(c2)OCO3)CC1 [Compound 242]
1000 to 10000 | CC(C)Oc1cccc(-c2ccccc2OCC(=O)N2CCC(CCc3ccc4c(c3)OCO4)CC2)c1 [Compound 243]
1000 to 10000 | CC(C)COc1cccc(-c2ccccc2OCC(=O)N2CCC(CCc3ccc4c(c3)OCO4)CC2)c1 [Compound 245]
1000 to 10000 | O=C(COc1ccccc1-c1ccncc1)N1CCC(CCc2ccc3c(c2)OCO3)CC1 [Compound 247]
< 1000 | O=C(COc1ccccc1-c1ccc2[nH]ncc2c1)N1CCC(CCc2ccc3c(c2)OCO3)CC1 [Compound 249]
< 1000 | C#Cc1ccc(-c2ccccc2OCC(=O)N2CCC(CCc3ccc4c(c3)OCO4)CC2)cc1 [Compound 250]
< 1000 | N#Cc1ccc(-c2ccccc2OCC(=O)N2CCC(CCc3ccc4c(c3)OCO4)CC2)c(F)c1 [Compound 251]

IC50 [nM] | SMILES
1000 to 10000 | O=C1COc2ccc(CCC3CCN(C(=O)COc4ccccc4-c4ccccc4)CC3)cc2N1 [Compound 254]
1000 to 10000 | Nc1ccc(CCC2CCN(C(=O)COc3ccccc3-c3ccccc3)CC2)cn1 [Compound 255]
1000 to 10000 | O=C1COc2ccc(CCC3CCN(C(=O)COc4ccccc4-c4ccc(F)cc4)CC3)cc2N1 [Compound 258]
< 1000 | O=C1COc2ccc(CCC3CCN(C(=O)COc4ccccc4-c4ccc(Cl)nc4)CC3)cc2N1 [Compound 259]
< 1000 | CC1Oc2ccc(CCC3CCN(C(=O)COc4ccccc4-c4ccc(F)cc4)CC3)cc2OC1C (centres unmarked) [Compound 264]
< 1000 | O=C(COc1ccccc1-c1ccc(F)nc1)N1CCC(CCc2ccc3c(c2)OCCCO3)CC1 [Compound 266]
< 1000 | O=C(COc1ccccc1-c1ccc2[nH]ncc2c1)N1CCC(CCc2ccc3c(c2)OCCCO3)CC1 [Compound 267]
< 1000 | N#Cc1ccc(-c2ccccc2OCC(=O)N2CCC(CCc3ccccc3)CC2)cc1 [Compound 269]
1000 to 10000 | CCc1ccc(OCC(=O)N2CCC(CCc3ccc4c(c3)OCO4)CC2)c(-c2ccc(F)cc2)c1 [Compound 273]
1000 to 10000 | CCc1ccc(OCC(=O)N2CCC(CCc3ccc4c(c3)OCO4)CC2)c(-c2ccc(C#N)cc2)c1 [Compound 274]
< 1000 | CCc1ccc(OCC(=O)N2CCC(CCc3ccc4c(c3)OCO4)CC2)c(-c2ccccc2)c1 [Compound 276]
< 1000 | CC1Oc2ccc(CCC3CCN(C(=O)COc4ccccc4-c4ccccc4O)CC3)cc2OC1C (centres unmarked) [Compound 278]
< 1000 | N#Cc1ccc(-c2ccccc2OCC(=O)N2CCC(CCc3ccc(O)cc3)CC2)cc1 [Compound 279]
< 1000 | O=C(COc1ccccc1-c1ccc(F)cc1)N1CCC(CCc2ccc(O)cc2)CC1 [Compound 280]
< 1000 | O=C(COc1ccccc1-c1ccc2[nH]ncc2c1)N1CCC(CCc2ccc(O)cc2)CC1 [Compound 281]
